Biological target: T1, PrpN (Bacillus anthracis, UniProt A0A6L7HCQ6)
T1 construct: gene GBAA_0570
T1 sequence (A0A6L7HCQ6 1-234): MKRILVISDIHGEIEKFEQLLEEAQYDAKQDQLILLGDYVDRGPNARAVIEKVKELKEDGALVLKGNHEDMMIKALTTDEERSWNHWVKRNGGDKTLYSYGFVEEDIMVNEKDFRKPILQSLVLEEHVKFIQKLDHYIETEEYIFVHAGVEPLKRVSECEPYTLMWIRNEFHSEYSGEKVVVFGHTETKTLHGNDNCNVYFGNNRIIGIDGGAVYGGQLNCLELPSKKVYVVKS

## O=[N+]([O-])c1ccc(OP(=O)(O)O)cc1 [p-nitrophenyl phosphate]
  pNPP hydrolysis, absorbance at 405 nm: determined spectrophotometrically using para-nitrophenyl phosphate-pNPP (Sigma-Aldrich) as substrate
